Source: US11897867B2, “6-phenyl-4,5-dihydropyridazin-3(2H)-one derivatives as PDE3A and PDE3B inhibitors for treating cancer” (Bayer Aktiengesellschaft, priority 2017, dated 2024)

How the values were obtained:
human full length PDE3A = molecular target: T1, human full length PDE3A (Homo sapiens, UniProt Q14432); assay: PDE3A enzyme inhibition (3H-cAMP Scintillation Proximity Assay); format: biochemical; details: PDE3A cell extract from Sf9 cells, 60 min room temperature; read-out: Target IC50 PDE3A IC50
T1 construct: Sf9 cells overexpressing human full length PDE3A; purchased SB Drug Discovery, UK; host or cells: Sf9 cells (cell extract)
T1 sequence (Q14432 whole entry): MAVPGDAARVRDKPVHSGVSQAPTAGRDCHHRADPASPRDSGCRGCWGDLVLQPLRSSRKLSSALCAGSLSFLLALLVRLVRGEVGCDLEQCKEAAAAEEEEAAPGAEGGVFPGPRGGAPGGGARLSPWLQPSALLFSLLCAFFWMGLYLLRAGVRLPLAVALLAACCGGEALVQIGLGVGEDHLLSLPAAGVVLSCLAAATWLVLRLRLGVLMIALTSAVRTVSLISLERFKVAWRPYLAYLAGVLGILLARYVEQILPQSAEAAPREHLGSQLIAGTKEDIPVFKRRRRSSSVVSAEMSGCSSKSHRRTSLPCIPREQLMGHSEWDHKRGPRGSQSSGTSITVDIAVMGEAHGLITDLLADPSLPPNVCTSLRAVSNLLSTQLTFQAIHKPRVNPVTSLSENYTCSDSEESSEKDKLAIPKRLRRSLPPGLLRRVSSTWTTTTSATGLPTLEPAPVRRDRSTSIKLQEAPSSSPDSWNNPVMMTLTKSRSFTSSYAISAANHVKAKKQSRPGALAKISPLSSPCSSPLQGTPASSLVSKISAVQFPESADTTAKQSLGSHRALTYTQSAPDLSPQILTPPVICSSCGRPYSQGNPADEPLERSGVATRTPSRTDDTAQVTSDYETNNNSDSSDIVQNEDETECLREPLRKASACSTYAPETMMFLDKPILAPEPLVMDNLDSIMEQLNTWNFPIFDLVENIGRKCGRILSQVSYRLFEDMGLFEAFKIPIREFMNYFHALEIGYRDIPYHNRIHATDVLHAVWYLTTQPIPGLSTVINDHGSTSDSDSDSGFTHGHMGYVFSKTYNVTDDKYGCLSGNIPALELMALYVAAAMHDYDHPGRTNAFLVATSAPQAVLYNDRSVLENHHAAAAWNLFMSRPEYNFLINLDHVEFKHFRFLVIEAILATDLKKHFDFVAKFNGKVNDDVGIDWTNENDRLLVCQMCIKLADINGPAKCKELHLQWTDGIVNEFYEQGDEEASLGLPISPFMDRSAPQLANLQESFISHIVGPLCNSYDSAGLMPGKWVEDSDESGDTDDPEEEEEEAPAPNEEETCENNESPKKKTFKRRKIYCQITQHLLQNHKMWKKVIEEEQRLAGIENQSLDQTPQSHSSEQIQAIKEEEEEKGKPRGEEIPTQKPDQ
Outline: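 Sf9 cell extract overexpressing human full-length PDE3A, diluted for linear kinetics (<70% substrate used), in 50 mM Tris/HCl pH 7.5, 8.3 mM MgCl2, 1.7 mM EDTA, 0.2% BSA. [8-3H]cAMP substrate, 60 min at room temperature, yttrium SPA bead read-out; IC50 from sigmoidal curves of % activity.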

human full length PDE3B = molecular target: T2, human full length PDE3B (Homo sapiens, UniProt Q13370); assay: PDE3B enzyme inhibition (3H-cAMP Scintillation Proximity Assay); format: biochemical; details: PDE3B cell extract from Sf9 cells, 60 min room temperature; read-out: Target IC50 PDE3B IC50
T2 construct: Sf9 cells overexpressing human full length PDE3B; purchased SB Drug Discovery, UK; host or cells: Sf9 cells (cell extract)
T2 sequence (Q13370 whole entry): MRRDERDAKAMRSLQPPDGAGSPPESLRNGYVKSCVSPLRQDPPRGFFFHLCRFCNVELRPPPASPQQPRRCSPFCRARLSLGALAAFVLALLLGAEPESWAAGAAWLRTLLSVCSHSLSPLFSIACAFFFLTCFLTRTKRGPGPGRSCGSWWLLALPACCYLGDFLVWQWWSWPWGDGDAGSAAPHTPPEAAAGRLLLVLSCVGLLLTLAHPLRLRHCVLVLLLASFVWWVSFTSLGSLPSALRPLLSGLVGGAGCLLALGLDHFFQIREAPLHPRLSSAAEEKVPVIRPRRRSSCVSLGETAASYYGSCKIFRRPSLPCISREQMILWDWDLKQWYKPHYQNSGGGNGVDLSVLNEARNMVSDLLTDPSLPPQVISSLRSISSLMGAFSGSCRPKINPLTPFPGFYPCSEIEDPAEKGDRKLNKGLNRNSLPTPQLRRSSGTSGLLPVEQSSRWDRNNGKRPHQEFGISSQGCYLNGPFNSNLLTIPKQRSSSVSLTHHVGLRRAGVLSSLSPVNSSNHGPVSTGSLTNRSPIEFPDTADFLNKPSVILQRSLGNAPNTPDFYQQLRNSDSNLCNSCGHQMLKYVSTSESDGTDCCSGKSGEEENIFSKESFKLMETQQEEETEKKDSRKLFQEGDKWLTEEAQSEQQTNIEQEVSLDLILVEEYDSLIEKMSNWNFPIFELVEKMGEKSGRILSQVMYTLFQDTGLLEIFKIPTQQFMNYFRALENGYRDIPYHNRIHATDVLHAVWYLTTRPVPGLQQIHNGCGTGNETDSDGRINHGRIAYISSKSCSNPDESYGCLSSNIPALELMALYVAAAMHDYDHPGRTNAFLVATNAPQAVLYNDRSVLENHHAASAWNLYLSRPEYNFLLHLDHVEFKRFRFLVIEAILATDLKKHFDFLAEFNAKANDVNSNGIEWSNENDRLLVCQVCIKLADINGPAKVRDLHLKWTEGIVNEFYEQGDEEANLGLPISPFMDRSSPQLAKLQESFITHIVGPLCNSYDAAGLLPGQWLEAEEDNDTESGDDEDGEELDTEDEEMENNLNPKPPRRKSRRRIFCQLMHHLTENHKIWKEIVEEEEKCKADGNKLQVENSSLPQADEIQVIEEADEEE
Outline: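 SPA with Sf9 cell extract overexpressing human full-length PDE3B, diluted for linear kinetics and <70% substrate turnover, in 50 mM Tris/HCl pH 7.5, 8.3 mM MgCl2, 1.7 mM EDTA, 0.2% BSA. [8-3H]cAMP substrate, 60 min at room temperature, stopped with yttrium SPA beads. IC50 from sigmoidal fit of % activity vs log concentration.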

SK-MEL-3 (melanoma) = assay: Cell proliferation measurement (Cell Titer Glo), SK-MEL-3; format: cell-based; details: Homo sapiens, SK-MEL3, SK-MEL-3 cells, 72 h treatment, read-out: Anti-proliferation IC50 SK-MEL-3 (melanoma)
Outline: (§1)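 Cells (1000/well; 500 for HeLa) plated overnight at 37 °C, then exposed to a ≥10-point compound dilution series for 72 h at 37 °C, DMSO 0.3% final as vehicle. Viability read by CellTiter-Glo luminescence; IC50 from 4-parameter fit against untreated wells.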

[1] = test system: HeLa cells (cervical cancer); assay: Cell proliferation measurement (Cell Titer Glo), HeLa; format: cell-based; details: Homo sapiens, 72 h treatment, read-out: Anti-proliferation IC50 HeLa (Cervical cancer)
Outline: as §1

SMILES | IC50 (human full length PDE3A) [nM] | IC50 (human full length PDE3B) [nM] | IC50 (SK-MEL-3 (melanoma)) [nM] | IC50 [1] [nM]
O=C1CCC(c2ccc(C3=CCCCC3)c(F)c2)=NN1 [Example 79, 6-(2-fluoro-2′,3′,4′,5′-tetrahydro[1,1′-biphenyl]-4-yl)-4,5-dihydropyridazin-3(2H)-one] | 170 | 170 | 6.15 | 4.47
O=C1CCC(c2ccc(C3=CCCC3)c(F)c2)=NN1 [Example 80, 6-[4-(cyclopent-1-en-1-yl)-3-fluorophenyl]-4,5-dihydropyridazin-3(2H)-one] | 220 | 310 | 4.13 | 2.67
O=C1CCC(c2ccc(-c3ccc(F)c(Cl)c3)c(F)c2)=NN1 [Example 83, 6-(3′-chloro-2,4′-difluoro[1,1′-biphenyl]-4-yl)-4,5-dihydropyridazin-3(2H)-one] | 560 | 280 | 61.8 | 39.7
Cc1cc(-c2ccc(C3=NNC(=O)CC3)cc2F)ccc1F [Example 84, 6-(2,4′-difluoro-3′-methyl[1,1′-biphenyl]-4-yl)-4,5-dihydropyridazin-3(2H)-one] | 270 | 220 | 41 | 16.1
Cc1cccc(-c2ccc(C3=NNC(=O)CC3)cc2F)c1C [Example 85, 6-(2-fluoro-2′,3′-dimethyl[1,1′-biphenyl]-4-yl)-4,5-dihydropyridazin-3(2H)-one] | 240 | 150 | 40.4 | 18.9
Cc1ncc(-c2ccc(C3=NNC(=O)CC3)cc2C)cn1 [Example 92, 6-[3-methyl-4-(2-methylpyrimidin-5-yl)phenyl]-4,5-dihydropyridazin-3(2H)-one] | 61 | 88 | > 100 | 42.3
Cc1ccc(-c2ccc(C3=NNC(=O)CC3)cc2C)cn1 [Example 93, 6-[3-methyl-4-(6-methylpyridin-3-yl)phenyl]-4,5-dihydropyridazin-3(2H)-one] | 38 | 49 | 24.7 | 5.39
Cc1cc(C2=NNC(=O)CC2)ccc1-c1cc(F)c(F)c(F)c1 [Example 96, 6-(3′,4′,5′-trifluoro-2-methyl[1,1′-biphenyl]-4-yl)-4,5-dihydropyridazin-3(2H)-one] | 310 | 260 | > 100 | 18.5
Cc1cc(C2=NNC(=O)CC2)ccc1-c1ccc(F)c(F)c1F [Example 97, 6-(2′,3′,4′-trifluoro-2-methyl[1,1′-biphenyl]-4-yl)-4,5-dihydropyridazin-3(2H)-one] | 170 | 120 | 82 | 12.1
Cc1cc(C2=NNC(=O)CC2)ccc1-c1cc(F)ccc1F [Example 98, 6-(2′,5′-difluoro-2-methyl[1,1′-biphenyl]-4-yl)-4,5-dihydropyridazin-3(2H)-one] | 180 | 120 | 64.3 | 12.7
Cc1cc(C2=NNC(=O)CC2)ccc1-c1ccccc1C#N [Example 99, 2′-methyl-4′-(6-oxo-1,4,5,6-tetrahydropyridazin-3-yl)[1,1′-biphenyl]-2-carbonitrile] | 280 | 530 | > 100 | 39.9
Cc1cc(C2=NNC(=O)CC2)ccc1-c1ccc(C#N)cc1 [Example 100, 2′-methyl-4′-(6-oxo-1,4,5,6-tetrahydropyridazin-3-yl)[1,1′-biphenyl]-4-carbonitrile] | 58 | 59 | > 100 | 22.5
Cc1cc(C2=NNC(=O)CC2)ccc1-c1cccc(O)c1 [Example 101, 6-(3′-hydroxy-2-methyl[1,1′-biphenyl]-4-yl)-4,5-dihydropyridazin-3(2H)-one] | 67 | 67 | 36.3 | 14.6
Cc1cc(C2=NNC(=O)CC2)ccc1-c1ccccc1O [Example 102, 6-(2′-hydroxy-2-methyl[1,1′-biphenyl]-4-yl)-4,5-dihydropyridazin-3(2H)-one] | 460 | 555 | > 100 | 23.4
Cc1cc(C2=NNC(=O)CC2)ccc1-c1cccc(F)c1F [Example 104, 6-(2′,3′-difluoro-2-methyl[1,1′-biphenyl]-4-yl)-4,5-dihydropyridazin-3(2H)-one] | 120 | 120 | 70.8 | 13.4

The remaining molecules from weak to strong by IC50 (human full length PDE3A), led by results:

IC50 (human full length PDE3A) [nM] | IC50 (human full length PDE3B) [nM] | IC50 (SK-MEL-3 (melanoma)) [nM] | IC50 [1] [nM] | SMILES
385 | 215 | 8.15 | 3.72 | Cc1ccc(-c2ccc(C3=NNC(=O)CC3)cc2F)cc1 [Example 87, 6-(2-fluoro-4′-methyl[1,1′-biphenyl]-4-yl)-4,5-dihydropyridazin-3(2H)-one]
370 | 230 | 26.3 | 13.9 | CCc1ccccc1-c1ccc(C2=NNC(=O)CC2)cc1F [Example 81, 6-(2′-ethyl-2-fluoro[1,1′-biphenyl]-4-yl)-4,5-dihydropyridazin-3(2H)-one]
320 | 600 | 69 | 53.3 | COc1cccc(-c2ccc(C3=NNC(=O)CC3)cc2F)c1OC [Example 78, 6-(2-fluoro-2′,3′-dimethoxy[1,1′-biphenyl]-4-yl)-4,5-dihydropyridazin-3(2H)-one]
280 | 310 | 59.8 | 10.6 | COc1ccc(-c2ccc(C3=NNC(=O)CC3)cc2F)cc1 [Example 86, 6-(2-fluoro-4′-methoxy[1,1′-biphenyl]-4-yl)-4,5-dihydropyridazin-3(2H)-one]
230 | 230 | > 100 | 91.6 | Cc1ccc(C)c(-c2ccc(C3=NNC(=O)CC3)cc2F)c1 [Example 88, 6-(2-fluoro-2′,5′-dimethyl[1,1′-biphenyl]-4-yl)-4,5-dihydropyridazin-3(2H)-one]
200 | 200 | > 100 | 27.6 | Cc1cc(C2=NNC(=O)CC2)ccc1-c1cc(F)cc(F)c1 [Example 105, 6-(3′,5′-difluoro-2-methyl[1,1′-biphenyl]-4-yl)-4,5-dihydropyridazin-3(2H)-one]
190 | 175 | 36.9 | 7.01 | Cc1ccc(-c2ccc(C3=NNC(=O)CC3)cc2C)c(F)c1 [Example 94, 6-(2′-fluoro-2,4′-dimethyl[1,1′-biphenyl]-4-yl)-4,5-dihydropyridazin-3(2H)-one]
180 | 200 | 60.7 | 9.32 | Cc1cc(C2=NNC(=O)CC2)ccc1-c1cc(F)c(F)cc1F [Example 95, 6-(2′,4′,5′-trifluoro-2-methyl[1,1′-biphenyl]-4-yl)-4,5-dihydropyridazin-3(2H)-one]
170 | 200 | > 100 | 36.8 | Cc1cc(C2=NNC(=O)CC2)ccc1-c1cccc(N)c1 [Example 103, 6-(3′-amino-2-methyl[1,1′-biphenyl]-4-yl)-4,5-dihydropyridazin-3(2H)-one]
140 | 150 | > 100 | 74.3 | N#Cc1ccc(F)c(-c2ccc(C3=NNC(=O)CC3)cc2F)c1 [Example 89, 2′,6-difluoro-4′-(6-oxo-1,4,5,6-tetrahydropyridazin-3-yl)[1,1′-biphenyl]-3-carbonitrile]
110 | 100 | 21.4 | 4.79 | Cc1cc(C2=NNC(=O)CC2)ccc1-c1ccc(F)cc1F [Example 106, 6-(2′,4′-difluoro-2-methyl[1,1′-biphenyl]-4-yl)-4,5-dihydropyridazin-3(2H)-one]
100 | 80 | 4.53 | 2.04 | Cc1ccccc1-c1ccc(C2=NNC(=O)CC2)cc1F [Example 77, 6-(2-fluoro-2′-methyl[1,1′-biphenyl]-4-yl)-4,5-dihydropyridazin-3(2H)-one]
83 | 85 | 23.6 | 14 | COc1ccc(-c2ccc(C3=NNC(=O)CC3)cc2F)cn1 [Example 82, 6-[3-fluoro-4-(6-methoxypyridin-3-yl)phenyl]-4,5-dihydropyridazin-3(2H)-one]
57 | 73 | > 100 | 51.9 | Cc1cc(C2=NNC(=O)CC2)ccc1-c1cnc(N)nc1 [Example 91, 6-[4-(2-aminopyrimidin-5-yl)-3-methylphenyl]-4,5-dihydropyridazin-3(2H)-one]
47 | 65 | > 100 | 16 | Cc1cc(C2=NNC(=O)CC2)ccc1-c1ccnc(N)c1 [Example 90, 6-[4-(2-aminopyridin-4-yl)-3-methylphenyl]-4,5-dihydropyridazin-3(2H)-one]
